Laboratory results from ChEMBL document CHEMBL1136593, “Design, synthesis, and discovery of 5-piperazinyl-1,2,6,7-tetrahydro-5H-azepino[3,2,1-hi]indol-4-one derivatives: a novel series of mixed dopamine D2/D4 receptor antagonist” (Bioorg Med Chem Lett, 2003).

Key:
[1] = biological target: T1, Adrenergic receptor alpha-1 (Rattus norvegicus, UniProt P15823+P23944+P43140); test: Displacement of [3H]prazosin from alpha-1 adrenergic receptor of rat brain homogenate
T1 sequence (P15823 whole entry): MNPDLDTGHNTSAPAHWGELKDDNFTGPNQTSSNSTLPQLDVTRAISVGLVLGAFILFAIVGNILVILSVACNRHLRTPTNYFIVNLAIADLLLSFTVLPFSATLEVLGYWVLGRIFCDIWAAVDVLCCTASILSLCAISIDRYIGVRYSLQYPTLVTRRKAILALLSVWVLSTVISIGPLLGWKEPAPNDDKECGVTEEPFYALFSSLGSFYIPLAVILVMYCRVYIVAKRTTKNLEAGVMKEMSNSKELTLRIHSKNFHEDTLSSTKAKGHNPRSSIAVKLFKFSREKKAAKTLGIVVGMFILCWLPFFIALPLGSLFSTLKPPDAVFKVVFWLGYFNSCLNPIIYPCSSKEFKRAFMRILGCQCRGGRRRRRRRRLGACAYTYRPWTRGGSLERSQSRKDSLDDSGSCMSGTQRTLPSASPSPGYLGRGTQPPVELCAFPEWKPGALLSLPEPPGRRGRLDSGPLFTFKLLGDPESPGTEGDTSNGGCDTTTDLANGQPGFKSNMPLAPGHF
T1 sequence (P23944 whole entry): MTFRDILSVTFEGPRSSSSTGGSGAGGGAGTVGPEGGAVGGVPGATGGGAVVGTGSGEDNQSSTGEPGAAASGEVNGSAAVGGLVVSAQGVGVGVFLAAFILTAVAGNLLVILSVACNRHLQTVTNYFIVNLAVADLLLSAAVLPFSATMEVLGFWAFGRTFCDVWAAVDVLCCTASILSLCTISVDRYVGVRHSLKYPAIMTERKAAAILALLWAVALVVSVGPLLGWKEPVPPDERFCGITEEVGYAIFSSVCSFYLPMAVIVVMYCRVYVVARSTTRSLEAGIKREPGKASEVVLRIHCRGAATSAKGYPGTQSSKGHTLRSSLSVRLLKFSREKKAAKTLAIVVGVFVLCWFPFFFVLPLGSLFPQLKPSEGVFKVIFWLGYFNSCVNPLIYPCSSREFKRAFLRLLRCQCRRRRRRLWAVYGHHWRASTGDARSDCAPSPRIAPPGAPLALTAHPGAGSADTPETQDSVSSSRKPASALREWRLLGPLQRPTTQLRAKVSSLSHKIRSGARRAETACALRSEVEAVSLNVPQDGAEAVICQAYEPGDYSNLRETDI
T1 sequence (P43140 whole entry): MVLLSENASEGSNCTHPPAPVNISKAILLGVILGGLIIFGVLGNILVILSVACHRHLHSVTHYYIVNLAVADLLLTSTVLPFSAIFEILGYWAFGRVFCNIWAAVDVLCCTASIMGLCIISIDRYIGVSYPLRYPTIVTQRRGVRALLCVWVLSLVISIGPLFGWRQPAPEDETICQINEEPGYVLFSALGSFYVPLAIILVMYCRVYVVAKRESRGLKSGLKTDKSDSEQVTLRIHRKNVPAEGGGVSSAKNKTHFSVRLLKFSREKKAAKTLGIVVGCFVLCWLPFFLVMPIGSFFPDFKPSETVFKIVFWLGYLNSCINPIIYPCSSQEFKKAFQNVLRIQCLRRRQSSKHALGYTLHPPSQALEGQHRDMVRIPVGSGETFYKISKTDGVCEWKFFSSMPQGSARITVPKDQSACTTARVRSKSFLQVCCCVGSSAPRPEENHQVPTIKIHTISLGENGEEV

[2] = biological target: T2, D(2) dopamine receptor (Homo sapiens, UniProt P14416); test: Displacement of [3H]-YM 09151 from D2 receptor
[3] = biological target: T3, D(4) dopamine receptor (Homo sapiens, UniProt P21917); test: Displacement of [3H]-YM 09151 from D4 receptor
T3 sequence (P21917 whole entry): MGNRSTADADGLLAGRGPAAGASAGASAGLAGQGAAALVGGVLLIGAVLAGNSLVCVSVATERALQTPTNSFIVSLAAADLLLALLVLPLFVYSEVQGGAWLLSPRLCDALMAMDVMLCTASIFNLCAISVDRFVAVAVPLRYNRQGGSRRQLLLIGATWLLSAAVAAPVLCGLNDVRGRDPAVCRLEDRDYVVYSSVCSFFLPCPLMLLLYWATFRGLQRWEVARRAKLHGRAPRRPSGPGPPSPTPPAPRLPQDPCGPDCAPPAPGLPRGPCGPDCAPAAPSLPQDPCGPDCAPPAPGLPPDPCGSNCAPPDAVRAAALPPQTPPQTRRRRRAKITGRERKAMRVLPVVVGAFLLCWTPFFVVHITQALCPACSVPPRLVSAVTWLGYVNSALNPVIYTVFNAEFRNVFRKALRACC

[4] = biological target: T2, D(2) dopamine receptor; test: D2 receptor functional activity was measured through reversal of quinpirole inhibited, forskolin stimulated cAMP production from whole cells
[5] = biological target: T3, D(4) dopamine receptor; test: D4 receptor functional activity was measured inhibition of quinpirole stimulated [35S]GTP-gamma-S binding from cell membranes.

T2 sequence (P14416 whole entry): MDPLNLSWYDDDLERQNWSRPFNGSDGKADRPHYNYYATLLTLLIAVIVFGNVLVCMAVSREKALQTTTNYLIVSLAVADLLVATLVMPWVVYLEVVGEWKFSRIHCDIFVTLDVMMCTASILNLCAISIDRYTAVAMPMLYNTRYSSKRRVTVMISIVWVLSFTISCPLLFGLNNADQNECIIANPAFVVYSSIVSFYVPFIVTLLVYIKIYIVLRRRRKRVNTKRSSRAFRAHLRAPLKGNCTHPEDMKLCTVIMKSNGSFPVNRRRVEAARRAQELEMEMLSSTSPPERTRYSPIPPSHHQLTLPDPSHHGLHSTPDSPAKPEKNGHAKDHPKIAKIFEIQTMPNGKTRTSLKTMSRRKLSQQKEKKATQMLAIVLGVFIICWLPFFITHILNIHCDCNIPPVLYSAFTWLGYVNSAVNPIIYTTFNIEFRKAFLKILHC

Row | SMILES | Ki [1] [nM] | Ki [2] [nM] | Ki [3] [nM] | Ki [4] [nM] | Ki [5] [nM]
1 | COc1ccc(Cl)cc1CN1CCN(C2CCc3cccc4c3N(C2=O)C(C)(C)C4)CC1 (configuration not stated) | 1056 | 220 | 29 | – | –
2 | CC1(C)Cc2cccc3c2N1C(=O)C(N1CCN(Cc2ccc(Cl)cc2)CC1)CC3 (configuration not stated) | 1735 | – | – | – | –
3 | COc1ccc(C)cc1CN1CCN(C2CCc3cccc4c3N(C2=O)C(C)(C)C4)CC1 (configuration not stated) | 983 | 313 | 65 | – | –
4 | CCN1C(=O)C(N2CCN(Cc3ccc(Cl)cc3)CC2)Cc2ccccc21 (configuration not stated) | 1265 | – | – | – | –
5 | Cc1ccc(CN2CCN(C3CCc4cccc5c4N(C3=O)C(C)C5)CC2)cc1 (configuration not stated) | 1000 | 26 | 10 | – | –
6 | Cc1ccc(CN2CCN(C3CCc4cccc5c4N(CC5)C3=O)CC2)cc1 (configuration not stated) | 1361 | 209 | – | – | –

Further lines, results first:

Row | Ki [1] [nM] | Ki [2] [nM] | Ki [3] [nM] | Ki [4] [nM] | Ki [5] [nM] | SMILES
7 | 653 | 952 | 34 | – | – | COc1cc(C)ccc1CN1CCN(C2CCc3cccc4c3N(C2=O)C(C)(C)C4)CC1 (configuration not stated)
8 | 2284 | 116 | 5 | 62 | 3 | O=C1C(N2CCN(Cc3ccc(Cl)cc3)CC2)CCc2cccc3c2N1CC3 (configuration not stated)
9 | 2678 | – | – | – | – | CCN1C(=O)C(N2CCN(Cc3ccc(Cl)cc3)CC2)CCc2ccccc21 (configuration not stated)
10 | 490 | 165 | 12 | – | – | Cc1ccc(CN2CCN(C3CCc4cccc5c4N(C3=O)C(C)(C)C5)CC2)cc1 (configuration not stated)
11 | 1000 | 139 | – | – | – | CC1Cc2cccc3c2N1C(=O)C(N1CCN(Cc2ccc(Cl)cc2)CC1)CC3 (configuration not stated)
